Experiments:
HCT116-MTAP-KO = test: Cell killing in HCT116 isogenic pair (Cell Titer-Glo viability), MTAP knock-out cells; format: cell-based, human; conditions: Homo sapiens, HCT-116, 144 h, 6 days incubation, 0-10 μM, * = more than 50% viability inhibition at tested concentration without a full curve
Outline: (§1)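 HCT116 MTAP-knockout or mock-knockout (MTAP wildtype) cells in RPMI 1640 with 10% FBS were seeded overnight, then exposed to test compound at 0–10 μM final for 6 days at 37° C. Viability was measured by CellTiter-Glo luminescence and IC50 was fitted.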

HCT116-mock-RNA-KO = test: Cell killing in HCT116 isogenic pair (Cell Titer-Glo viability), mock knock-out cells with MTAP wildtype genotype; format: cell-based, human; conditions: Homo sapiens, HCT-116, 144 h, 6 days incubation, 0-10 μM
Outline: as §1

CCN(C(=O)c1cc2nc(N)c3c(c2[nH]1)COC3)[C@H](C)c1ccc(C(F)(F)F)cc1F [Example 135, (R)-5-amino-N-ethyl-N-(1-(2-fluoro-4-(trifluoromethyl)phenyl)ethyl)-6,8-dihydro-1H-furo[3,4-d]pyrrolo[3,2-b]pyridine-2-carboxamide]
IC50 (HCT116-MTAP-KO): 26 nM | IC50 (HCT116-mock-RNA-KO): 2130 nM

CCN(C(=O)c1cc2nc(N)c3c(c2[nH]1)COC3)[C@@H](C)c1ccc(C(F)(F)F)cc1F [Example 136, (S)-5-amino-N-ethyl-N-(1-(2-fluoro-4-(trifluoromethyl)phenyl)ethyl)-6,8-dihydro-1H-furo[3,4-d]pyrrolo[3,2-b]pyridine-2-carboxamide]
IC50 (HCT116-MTAP-KO): 245 nM | IC50 (HCT116-mock-RNA-KO): 3520 nM

C[C@H](c1ccc(Br)cc1F)N(C)C(=O)c1cc2nc(N)c3c(c2[nH]1)COC3 [Example 137, (R)-5-amino-N-(1-(4-bromo-2-fluorophenyl)ethyl)-N-methyl-6,8-dihydro-1H-furo[3,4-d]pyrrolo[3,2-b]pyridine-2-carboxamide]
IC50 (HCT116-MTAP-KO): 44 nM | IC50 (HCT116-mock-RNA-KO): 3020 nM

C[C@@H](c1ccc(Br)cc1F)N(C)C(=O)c1cc2nc(N)c3c(c2[nH]1)COC3 [Example 138, (S)-5-amino-N-(1-(4-bromo-2-fluorophenyl)ethyl)-N-methyl-6,8-dihydro-1H-furo[3,4-d]pyrrolo[3,2-b]pyridine-2-carboxamide]
IC50 (HCT116-MTAP-KO): 913 nM | IC50 (HCT116-mock-RNA-KO): 3240 nM

C[C@H](c1ccc(Br)cc1F)N(C)C(=O)c1cc2nc(N)c3c(c2[nH]1)CO[C@@H]3C [Example 139, (R)-5-amino-N—((R)-1-(4-bromo-2-fluorophenyl)ethyl)-N,6-dimethyl-6,8-dihydro-1H-furo[3,4-d]pyrrolo[3,2-b]pyridine-2-carboxamide]
IC50 (HCT116-MTAP-KO): 12 nM | IC50 (HCT116-mock-RNA-KO): 2400 nM

C[C@H]1OCc2c1c(N)nc1cc(C(=O)N(C)[C@@H](C)c3ccc(Br)cc3F)[nH]c21 [Example 140, (R)-5-amino-N—((S)-1-(4-bromo-2-fluorophenyl)ethyl)-N,6-dimethyl-6,8-dihydro-1H-furo[3,4-d]pyrrolo[3,2-b]pyridine-2-carboxamide]
IC50 (HCT116-MTAP-KO): 270 nM | IC50 (HCT116-mock-RNA-KO): 3030 nM

Nc1nc2cc(C(=O)N3CCOC[C@@H]3c3ccc(C(F)(F)F)cc3)[nH]c2c2c1COC2 [Example 141, (S)-(5-amino-6,8-dihydro-1H-furo[3,4-d]pyrrolo[3,2-b]pyridin-2-yl)(3-(4-(trifluoromethyl)phenyl)morpholino)methanone]
IC50 (HCT116-MTAP-KO): 149 nM | IC50 (HCT116-mock-RNA-KO): > 10000 nM

C[C@H](c1ncc(C2CC2)cc1F)N(C)C(=O)c1cc2nc(N)c3c(c2[nH]1)CO[C@@H]3C [Example 142, (R)-5-amino-N—((R)-1-(5-cyclopropyl-3-fluoropyridin-2-yl)ethyl)-N,6-dimethyl-6,8-dihydro-1H-furo[3,4-d]pyrrolo[3,2-b]pyridine-2-carboxamide]
IC50 (HCT116-MTAP-KO): 2.6 nM | IC50 (HCT116-mock-RNA-KO): 477 nM

CCN(C(=O)c1cc2nc(N)c3c(c2[nH]1)COC3)[C@H](C)c1ncc(Br)cc1F [Example 143, (R)-5-amino-N-(1-(5-bromo-3-fluoropyridin-2-yl)ethyl)-N-ethyl-6,8-dihydro-1H-furo[3,4-d]pyrrolo[3,2-b]pyridine-2-carboxamide]
IC50 (HCT116-MTAP-KO): 11 nM | IC50 (HCT116-mock-RNA-KO): 1380 nM

CCN(C(=O)c1cc2nc(N)c3c(c2[nH]1)COC3)[C@@H](C)c1ncc(Br)cc1F [Example 144, (S)-5-amino-N-(1-(5-bromo-3-fluoropyridin-2-yl)ethyl)-N-ethyl-6,8-dihydro-1H-furo[3,4-d]pyrrolo[3,2-b]pyridine-2-carboxamide]
IC50 (HCT116-MTAP-KO): 543 nM | IC50 (HCT116-mock-RNA-KO): > 10000 nM

C[C@H](c1ccc(C(F)(F)F)cc1F)N(C)C(=O)c1cc2nc(N)c3c(c2[nH]1)COC3 [Example 145, (R)-5-amino-N-(1-(2-fluoro-4-(trifluoromethyl)phenyl)ethyl)-N-methyl-6,8-dihydro-1H-furo[3,4-d]pyrrolo[3,2-b]pyridine-2-carboxamide]
IC50 (HCT116-MTAP-KO): 26 nM | IC50 (HCT116-mock-RNA-KO): 3430 nM

C[C@@H](c1ccc(C(F)(F)F)cc1F)N(C)C(=O)c1cc2nc(N)c3c(c2[nH]1)COC3 [Example 146, (S)-5-amino-N-(1-(2-fluoro-4-(trifluoromethyl)phenyl)ethyl)-N-methyl-6,8-dihydro-1H-furo[3,4-d]pyrrolo[3,2-b]pyridine-2-carboxamide]
IC50 (HCT116-MTAP-KO): 316 nM | IC50 (HCT116-mock-RNA-KO): > 10000 nM

C[C@H]1OCc2c1c(N)nc1cc(C(=O)N(C)[C@@H](C)c3ccc(C(F)(F)F)cc3F)[nH]c21 [Example 147, (R)-5-amino-N—((S)-1-(2-fluoro-4-(trifluoromethyl)phenyl)ethyl)-N,6-dimethyl-6,8-dihydro-1H-furo[3,4-d]pyrrolo[3,2-b]pyridine-2-carboxamide]
IC50 (HCT116-MTAP-KO): 1230 nM | IC50 (HCT116-mock-RNA-KO): 5420 nM

C[C@H](c1ccc(C(F)(F)F)cc1F)N(C)C(=O)c1cc2nc(N)c3c(c2[nH]1)CO[C@@H]3C [Example 148, (R)-5-amino-N—((R)-1-(2-fluoro-4-(trifluoromethyl)phenyl)ethyl)-N,6-dimethyl-6,8-dihydro-1H-furo[3,4-d]pyrrolo[3,2-b]pyridine-2-carboxamide]
IC50 (HCT116-MTAP-KO): 19 nM | IC50 (HCT116-mock-RNA-KO): 2440 nM

C[C@@H](c1c(F)cc(C(F)(F)F)cc1F)N(C)C(=O)c1cc2nc(N)c3c(c2[nH]1)COC3 [Example 149, (S)-5-amino-N-(1-(2,6-difluoro-4-(trifluoromethyl)phenyl)ethyl)-N-methyl-6,8-dihydro-1H-furo[3,4-d]pyrrolo[3,2-b]pyridine-2-carboxamide]
IC50 (HCT116-MTAP-KO): 2680 nM | IC50 (HCT116-mock-RNA-KO): > 10000 nM

C[C@H](c1c(F)cc(C(F)(F)F)cc1F)N(C)C(=O)c1cc2nc(N)c3c(c2[nH]1)COC3 [Example 150, (R)-5-amino-N-(1-(2,6-difluoro-4-(trifluoromethyl)phenyl)ethyl)-N-methyl-6,8-dihydro-1H-furo[3,4-d]pyrrolo[3,2-b]pyridine-2-carboxamide]
IC50 (HCT116-MTAP-KO): 32 nM | IC50 (HCT116-mock-RNA-KO): 2790 nM

Cc1cc([C@@H](C)N(C)C(=O)c2cc3nc(N)c4c(c3[nH]2)COC4)c(F)cc1C1CC1 [Example 151, (R)-5-amino-N-(1-(4-cyclopropyl-2-fluoro-5-methylphenyl)ethyl)-N-methyl-6,8-dihydro-1H-furo[3,4-d]pyrrolo[3,2-b]pyridine-2-carboxamide]
IC50 (HCT116-MTAP-KO): 85 nM | IC50 (HCT116-mock-RNA-KO): > 10000 nM

Cc1cc([C@H](C)N(C)C(=O)c2cc3nc(N)c4c(c3[nH]2)COC4)c(F)cc1C1CC1 [Example 152, (S)-5-amino-N-(1-(4-cyclopropyl-2-fluoro-5-methylphenyl)ethyl)-N-methyl-6,8-dihydro-1H-furo[3,4-d]pyrrolo[3,2-b]pyridine-2-carboxamide]
IC50 (HCT116-MTAP-KO): 1280 nM | IC50 (HCT116-mock-RNA-KO): > 10000 nM

C[C@H](c1ncc(C2CC2)cc1F)N(C(=O)c1cc2nc(N)c3c(c2[nH]1)COC3)C1CCC1 [Example 153, (R)-5-amino-N-cyclobutyl-N-(1-(5-cyclopropyl-3-fluoropyridin-2-yl)ethyl)-6,8-dihydro-1H-furo[3,4-d]pyrrolo[3,2-b]pyridine-2-carboxamide]
IC50 (HCT116-MTAP-KO): 10 nM | IC50 (HCT116-mock-RNA-KO): 610 nM

C[C@@H](c1ncc(C2CC2)cc1F)N(C(=O)c1cc2nc(N)c3c(c2[nH]1)COC3)C1CCC1 [Example 154, (S)-5-amino-N-cyclobutyl-N-(1-(5-cyclopropyl-3-fluoropyridin-2-yl)ethyl)-6,8-dihydro-1H-furo[3,4-d]pyrrolo[3,2-b]pyridine-2-carboxamide]
IC50 (HCT116-MTAP-KO): 1630 nM | IC50 (HCT116-mock-RNA-KO): 8520 nM

C[C@H](c1ncc(C(F)(F)F)cc1F)N(C(=O)c1cc2nc(N)c3c(c2[nH]1)COC3)C1CCC1 [Example 155, (R)-5-amino-N-cyclobutyl-N-(1-(3-fluoro-5-(trifluoromethyl)pyridin-2-yl)ethyl)-6,8-dihydro-1H-furo[3,4-d]pyrrolo[3,2-b]pyridine-2-carboxamide]
IC50 (HCT116-MTAP-KO): 19 nM | IC50 (HCT116-mock-RNA-KO): 2250 nM

C[C@@H](c1ncc(C(F)(F)F)cc1F)N(C(=O)c1cc2nc(N)c3c(c2[nH]1)COC3)C1CCC1 [Example 156, (S)-5-amino-N-cyclobutyl-N-(1-(3-fluoro-5-(trifluoromethyl)pyridin-2-yl)ethyl)-6,8-dihydro-1H-furo[3,4-d]pyrrolo[3,2-b]pyridine-2-carboxamide]
IC50 (HCT116-MTAP-KO): 523 nM | IC50 (HCT116-mock-RNA-KO): > 10000 nM

COCCN(C(=O)c1cc2nc(N)c3c(c2[nH]1)COC3)[C@H](C)c1ncc(C(F)(F)F)cc1F [Example 157, (R)-5-amino-N-(1-(3-fluoro-5-(trifluoromethyl)pyridin-2-yl)ethyl)-N-(2-methoxyethyl)-6,8-dihydro-1H-furo[3,4-d]pyrrolo[3,2-b]pyridine-2-carboxamide]
IC50 (HCT116-MTAP-KO): 64 nM | IC50 (HCT116-mock-RNA-KO): > 10000 nM

COCCN(C(=O)c1cc2nc(N)c3c(c2[nH]1)COC3)[C@@H](C)c1ncc(C(F)(F)F)cc1F [Example 158, (S)-5-amino-N-(1-(3-fluoro-5-(trifluoromethyl)pyridin-2-yl)ethyl)-N-(2-methoxyethyl)-6,8-dihydro-1H-furo[3,4-d]pyrrolo[3,2-b]pyridine-2-carboxamide]
IC50 (HCT116-MTAP-KO): 2020 nM | IC50 (HCT116-mock-RNA-KO): > 10000 nM

C[C@H](c1ccc(C2CC2)cn1)N(C(=O)c1cc2nc(N)c3c(c2[nH]1)COC3)C1CCC1 [Example 159, (R)-5-amino-N-cyclobutyl-N-(1-(5-cyclopropylpyridin-2-yl)ethyl)-6,8-dihydro-1H-furo[3,4-d]pyrrolo[3,2-b]pyridine-2-carboxamide]
IC50 (HCT116-MTAP-KO): 36 nM | IC50 (HCT116-mock-RNA-KO): 2580 nM

C[C@@H](c1ccc(C2CC2)cn1)N(C(=O)c1cc2nc(N)c3c(c2[nH]1)COC3)C1CCC1 [Example 160, (S)-5-amino-N-cyclobutyl-N-(1-(5-cyclopropylpyridin-2-yl)ethyl)-6,8-dihydro-1H-furo[3,4-d]pyrrolo[3,2-b]pyridine-2-carboxamide]
IC50 (HCT116-MTAP-KO): 598 nM | IC50 (HCT116-mock-RNA-KO): > 10000 nM

— patent US20240368177A1, “5-AMINO-6,8-DIHYDRO-1H-FURO[3,4-d]PYRROLO[3,2-b]PYRIDINE-2-CARBOXAMIDE DERIVATIVES AS MTA-COOPERATIVE INHIBITORS OF PRMT5” (BeiGene Switzerland GmbH, priority 2023, published 2024)
